Measurements taken from the NIST ThermoML archive (doi:10.1016/j.fluid.2014.09.014).

Experiment: refractive index (other wavelength) (dimensionless); xn = mol fraction of the nth substance listed
Details: 318.15 K, 101 kPa, Liquid, Standard Abbe refractometry

CC(C)OC(C)C [diisopropyl ether] + CC(C)O
refractive index
Details	Wavelength=589.3 nm	Wavelength=632.8 nm	Wavelength=644 nm	Wavelength=706.5 nm
x1 = 0.0277	–	1.36479	1.36448	1.36305
x1 = 0.0507	–	1.36472	1.36443	1.363
x1 = 0.051	–	1.36464	1.36435	1.36292
x1 = 0.0717	–	1.36428	1.36398	1.36256
x1 = 0.1528	–	1.36364	1.36335	1.3619
x1 = 0.1553	–	1.36364	1.36335	1.3619
x1 = 0.1938	–	1.36338	1.36309	1.36166
x1 = 0.2029	–	1.36273	1.36243	1.361
x1 = 0.245	–	1.36223	1.36194	1.36053
x1 = 0.297	–	1.36131	1.36101	1.35958
x1 = 0.2973	–	1.36153	1.36123	1.35982
x1 = 0.3068	–	1.36129	1.36098	1.35954
x1 = 0.398	–	1.36008	1.35978	1.35836
x1 = 0.4609	–	1.35912	1.35883	1.3574
x1 = 0.5434	–	1.35814	1.35784	1.35643
x1 = 0.6032	–	1.35735	1.35707	1.35568
x1 = 0.6371	–	1.35701	1.35671	1.35531
x1 = 0.701	1.35743	1.35619	1.35591	1.35452
x1 = 0.754	1.357	1.35577	1.35547	1.35407
x1 = 0.791	1.35658	1.35537	1.35507	1.35364
x1 = 0.8296	1.35614	1.35491	1.35461	1.3532
x1 = 0.8864	1.35599	1.35478	1.35448	1.35309
x1 = 0.8903	1.35543	1.35421	1.35391	1.35251
x1 = 0.9113	1.35515	1.35395	1.35366	1.35225
x1 = 0.9547	1.35469	1.35346	1.35317	1.3518
x1 = 0.973	1.35433	1.35311	1.35281	1.35143
x1 = 0.9771	1.35427	1.35304	1.35276	1.35139
x1 = 1	1.35411	1.3529	1.35259	1.3512
